The test system of data set [1] is HUVECs. The experiment in a line: Reactive oxygen species, DCFH-DA flow cytometry. The class given is cell-based, human. Particulars: 20 μg/mL, compared with the HG + LPS group, p < 0.01. The method, then:
To evaluate the antioxidant activity of MYR-DM-ANG1-7, HUVECs were cultured in DMEM supplemented with 10% FBS at 37°C and 5% CO2. After serum starvation for 24 h, the cells were divided into […] experimental groups: normal control group, high glucose + LPS, high glucose + DM group, and high glucose + MYR-DM-ANG1-7. After drug treatment, the cells were washed three times with ice-cold PBS and incubated with 10 μM DCFH-DA probe in serum-free medium at 37°C in the dark for 20 min. After removing the probe with PBS, the fluorescence intensity of 10,000 live cells was immediately measured by flow cytometry (excitation: 488 nm and emission: 530/30 nm). The data were expressed as the geometric mean fluorescence intensity (MFI) of each sample.

Data set [2] relates to S. aureus (ATCC 25923) infected diabetic wound. Briefly: Diabetic mouse S. aureus-infected full-thickness skin wound model. The following applies: for wound healing rate: 200 μL subcutaneously for 3 days, n = 4. The method, then: BALB/c male mice are from the Experimental Animal Center of Air Force Military Medical University. One group was fed a normal diet, and the other five groups were fed a high-fat diet for 4 weeks and then injected with 35 mg/kg streptozotocin (STZ, 35 mg/kg, Sigma) intraperitoneally for 3 days. […] After intraperitoneal injection of pentobarbital sodium (1%, […]), the dorsal hair of each animal was shaved off, and a circular full-thickness skin wound was created on the back using a 10-mm sterile mouse punch. S. aureus (ATCC 25923) was used to infect the wound site of mice, and a full-thickness wound infection model of mice was established. S. aureus was first resuscitated by operation in a biological ultra-clean table. A single colony was picked and incubated in LB medium at 37°C and 200 rpm. The concentration of the above S. aureus solution was adjusted to 1 × 10^8 CFU/mL to infect the wound of mice. Then, 24 h after S. aureus infection, three drugs, DM (20 μg/mL), ANG1-7 (20 μg/mL), and MYR-DM-ANG1-7 (20 μg/mL), were dissolved in PBS buffer, and 200 μL was injected subcutaneously for 3 days. After drug injection, the wound pus was diluted and coated with plate culture to observe the colony situation. The gross specimen imaging system (GF-7A, China) was used to record the wounds of mice on the same day and every other day after the formation of the wounds. The rubber ring with adhesive backing was used to fix the wound and prevent it from shrinking. ImageJ analysis software (NIH, Bethesda, MD, United States) was used to calculate and analyze the wound area. After 0, 3, 7, 10, and 14 days, the size of the infected wound was evaluated by rubber ring. The wound closure was measured as follows: the wound healing rate (%) = [W0 − Wn]/W0 × 100%, where W0 and Wn represent the wound area on the 0th and nth days, respectively (n = 4).
On the 14th day, the skin tissue was fixed in 4% paraformaldehyde solution, dehydrated, embedded in paraffin, sliced, and stained with hematoxylin–eosin (HE) and Masson. Skin tissue sections on Day 7 were immunofluorescently stained using rabbit anti-mouse CD31 (Cell Signaling Technology) and α-SMA (Cell Signaling Technology), and all stained sections were observed under the slide scanner (Aperio AT 2; Leica Biosystems, Germany).

Data set [3] concerns PI3K/AKT/eNOS signaling pathway, MasR in HUVECs. The experiment in a line: Western blot of PI3K/AKT/eNOS signaling pathway and MasR. The data set is classed as cell-based, human. The method, then: After the specified treatments, HUVECs were harvested using a cell scraper and lysed in cell lysis buffer (Wuhan Boster Biological Engineering Co., Ltd.) for 30 min at 4°C. Total protein was quantified using a BCA protein assay kit. Lysate (20 μg) from each sample was separated by 10% sodium dodecyl sulfate–polyacrylamide gel electrophoresis (SDS-PAGE) and then transferred to a polyvinylidene fluoride (PVDF) membrane. The membrane was blocked with a fresh blocking buffer containing 5% skim milk in Tris-buffered saline with 0.1% Tween 20 (TBS-T) for 2 h at room temperature and then incubated with primary antibodies against AKT (1:1000 dilution, #4691, Cell Signaling Technology), p-AKT (1:2000 dilution, #4060, Cell Signaling Technology), PI3K (1:1000 dilution, ab191606, Abcam), p-PI3K (1:1000 dilution, ab278545, Abcam), eNOS (1:1000 dilution, #32027, Cell Signaling Technology), p-eNOS (1:1000 dilution, ab215717, Abcam), and Mas (1:1000 dilution, #85003-1-RR, Proteintech) overnight at 4°C with shaking. The membrane was washed with TBS-T for 15 min and then incubated with horseradish peroxidase (HRP)–conjugated goat anti-rabbit secondary antibody (Wuhan Sanying Biotechnology Co., Ltd.) at a 1:2000 dilution in TBS-T and 3% skim milk for 90 min at room temperature. The membrane was washed three times with TBS-T, each for 15 min, and the immune reaction signals were detected using an ECL detection method. Protein bands were detected using a chemiluminescent gel imaging system (Bio-Rad Lab, China). Protein expression was quantitatively analyzed using ImageJ software (National Institutes of Health, Bethesda, MD, United States), and the experiment was repeated three times.
Background: A western blot detects proteins with antibodies after separation by electrophoresis.

For data set [4], the system named is HUVECs. Briefly: ELISA of IL-6 and TNF-α in culture supernatant. The class given is cell-based, human. Particulars: HG + LPS 24 h. Here is the method:
The HUVECs were seeded at 1 × 10^4 cells/well and cultured in 96-well plates. Following the indicated treatments, the levels of IL-6 and TNF-α in culture media were analyzed using ELISA according to the method of the kit. The experiments were repeated three times.
In general terms: In an ELISA, binding on a coated surface is turned into a signal by an enzyme label.

Data set [5] in a line: TEM of self-assembled structures. The following applies: 32 μg/mL, deionized water, 1.5% PTA negative stain. The class given is physicochemical. The method, then:
The self-assembly morphology of peptide amphiphiles in water was observed using TEM. Each sample was mounted on a 300-mesh copper-coated carbon grid and then negatively stained with a 1.5% phosphotungstic acid solution (1.5% PTA). Before imaging, all samples were air-dried for approximately 10 min. Finally, the samples were characterized under an acceleration voltage of 80 kV.

Where no end group is shown, it is not given here. The star is where a group is joined. Myristoyl = CCCCCCCCCCCCCC(=O)*

On to “Myristoyl-SSRRKPCKGWLCKLKLRGGYTLIGSATNLNRPTYVRAGGGDRVYIHP (cysteines drawn unpaired) [MYR-DM-ANG1-7]”, for which the “reduction of intracellular reactive oxygen species level” value in the data set on HUVECs [1] was “approximately 32%”. In addition, the wound healing rate is given as 72.77% in data set [2] (7th day, 20 μg/mL in PBS); 85.22% in data set [2] (10th day (diabetic control 40.26%), 20 μg/mL); 95.66% in data set [2] (14th day (diabetic control 52.34%), 20 μg/mL). In addition, the “pathological changes in the liver and kidneys” value in data set [2] (14th day, H&E) was “no evidence of organ damage or pathological changes”. Further, the “blood vessels, CD31 immunofluorescence” value in data set [2] (Day 7, compared with the diabetes infection group, p < 0.05) is reported as “more blood vessels”. In data set [2] (Day 14, compared with the diabetes infection group), the “epidermis of wound tissue (HE staining)” value is on record as “became thinner”. The “collagen deposition area (Masson staining)” value in data set [2] (Day 14, p < 0.0001) is “became larger”. Besides, in data set [2] (seventh day, vs the diabetes infection group, p < 0.01), the “fluorescence intensity of α-SMA” value is “significantly higher”. In addition, in data set [2] (wound pus plated on LB agar after 24 h of treatment, p < 0.0001), the “number of bacteria in the wound” value was “decreased”. In addition, in data set [3] (after HG treatment and drug treatment), the “expression of membrane receptor MasR” value is listed as “significantly increased”. For the same substance, the “phosphorylation level of eNOS” value in data set [3] (pretreatment then HG + LPS) was “increased”. Moreover, in data set [3] (pretreatment then HG + LPS (HG + LPS 0.4-fold), n = 3), the “phosphorylation level of AKT (p-AKT/total AKT)” value is recorded as 0.94 fold. For the same substance, the “phosphorylation level of PI3K (p-PI3K/total PI3K)” value in data set [3] (pretreatment then HG + LPS (HG + LPS 0.8-fold), n = 3) amounted to 1.28 fold. Moreover, the TNF-α level result with HUVECs [4] is reported as “alleviate the decrease”. The “particle size of micelles” value in data set [5] is reported as 22.38 ± 1.63 nm.
